Measured values published in patent US20240246935A1 (Plexium, Inc., priority 2021, published 2024).

Each compound was assayed against human E3 ligase component cereblon (CRBN) (Homo sapiens (Human), UniProt Q96SW2) (assay: Cereblon (CRBN) target engagement, NanoBRET TE Intracellular E3 Ligase Assay in transfected HEK-293T cells). Settings: read-out: CRBN Binding EC50.
Experimental: HEK293T cells were harvested ca. 75% confluent with trypsin and plated (500,000 cells/well) in a 6-well tissue culture plate in 2 mL of Dulbecco's Modified Eagle Medium (DMEM)+10% Fetal Bovine Serum (FBS) and incubated overnight at 37° C.
The NanoLuc-CRBN fusion vector (Nluc-CRBN; Promega) contains the coding region of human E3 ligase component cereblon (CRBN) fused to the C-terminus of the NanoLuc luciferase coding region. A mixture of 10 ng Nluc-CRBN and 990 ng DDB1 Expression Vector (Promega) was added to 125 μL Opti-Minimum Essential Medium (Opti-MEM™; Thermo Fisher) along with 2 μL P3000 reagent (Thermo Fisher) in a 1.5 mL epppendorf tube. This solution was added to Lipofectamine 3000 transfection reagent (5 μL; Thermo Fisher) in Opti-MEM (125 μL), mixed well, and incubated for 15 minutes at room temperature. The transfection mixture was added dropwise to cells and incubated overnight at 37° ° C., 5% CO2. Following transfection, cells were washed once with PBS, and trypsin (250 μL) was added and incubated 30-45 sec to dislodge cells. Complete media (2 mL) was added to resuspend cells to form a single cell suspension. Cells were centrifuged at 320×g for 5 min at room temperature, the supernatant was removed, and the cell pellet resuspended in Opti-MEM (3 mL; wash step repeated×2). After final resuspension in 5 mL Opti-MEM, cells were counted and resuspended at 200,000 cells/mL in Opti-MEM.
Cereblon target engagement was monitored by Bioluminescence Resonance Energy Transfer (BRET) in transfected HEK-293T cells using the NanoBRET TE Intracellular E3 Ligase Assay (Promega). Briefly, 384-well plates (white opaque plates, Corning 3574, low binding surface) were seeded with transfected HEK-293T cells (38 μL/well). 2 μL of 10 μM CRBN tracer (diluted 1:5 in Tracer Dilution Buffer) was added to each well. Plates were centrifuged at 320×g for 1 min at room temperature. Test compounds were added in a 11-point dilution series (typically 10 μM to […]) using a TECAN D300e Digital Dispenser. Plates were shaken for 2 minutes on a microplate shaker to mix compounds. Plates were centrifuged at 320×g for 1 min at room temperature, and subsequently incubated for 2 hours at 37° C.
After incubation, plates were allowed to cool to room temperature for 15 minutes. 20 μL of 3× Complete NanoBRET™ Nano-Glo® Substrate plus Inhibitor Solution (Promega, 1:166 Substrate and 1:500 dilution of Extracellular NanoLuc® Inhibitor diluted in Opti-MEM) were added to each well. Plates were incubated with shaking at room temperature for 3 minutes covered with foil. Plates were read on a CLARIOstar microplate reader (BMG LabTech), measuring at 450 nm (donor emission) and 610 nm (acceptor emission). The IC50 values were determined by regression to best fit four-parameter logistic curves using GraphPad Prism.

human E3 ligase component cereblon (CRBN), sequence (Q96SW2 whole entry): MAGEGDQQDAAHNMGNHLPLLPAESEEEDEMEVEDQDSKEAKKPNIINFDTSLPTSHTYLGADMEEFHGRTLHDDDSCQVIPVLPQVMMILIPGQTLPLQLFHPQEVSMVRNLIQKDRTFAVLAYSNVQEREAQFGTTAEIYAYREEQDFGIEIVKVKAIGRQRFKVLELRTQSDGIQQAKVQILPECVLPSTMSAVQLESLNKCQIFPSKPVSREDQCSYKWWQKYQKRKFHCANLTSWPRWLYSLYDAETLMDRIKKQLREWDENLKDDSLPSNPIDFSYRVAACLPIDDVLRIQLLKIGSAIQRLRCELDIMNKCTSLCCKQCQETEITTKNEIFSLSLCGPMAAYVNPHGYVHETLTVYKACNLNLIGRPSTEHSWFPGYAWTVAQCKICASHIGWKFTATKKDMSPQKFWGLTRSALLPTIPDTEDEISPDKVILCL
human E3 ligase component cereblon (CRBN), sequence (Q16531 whole entry partner): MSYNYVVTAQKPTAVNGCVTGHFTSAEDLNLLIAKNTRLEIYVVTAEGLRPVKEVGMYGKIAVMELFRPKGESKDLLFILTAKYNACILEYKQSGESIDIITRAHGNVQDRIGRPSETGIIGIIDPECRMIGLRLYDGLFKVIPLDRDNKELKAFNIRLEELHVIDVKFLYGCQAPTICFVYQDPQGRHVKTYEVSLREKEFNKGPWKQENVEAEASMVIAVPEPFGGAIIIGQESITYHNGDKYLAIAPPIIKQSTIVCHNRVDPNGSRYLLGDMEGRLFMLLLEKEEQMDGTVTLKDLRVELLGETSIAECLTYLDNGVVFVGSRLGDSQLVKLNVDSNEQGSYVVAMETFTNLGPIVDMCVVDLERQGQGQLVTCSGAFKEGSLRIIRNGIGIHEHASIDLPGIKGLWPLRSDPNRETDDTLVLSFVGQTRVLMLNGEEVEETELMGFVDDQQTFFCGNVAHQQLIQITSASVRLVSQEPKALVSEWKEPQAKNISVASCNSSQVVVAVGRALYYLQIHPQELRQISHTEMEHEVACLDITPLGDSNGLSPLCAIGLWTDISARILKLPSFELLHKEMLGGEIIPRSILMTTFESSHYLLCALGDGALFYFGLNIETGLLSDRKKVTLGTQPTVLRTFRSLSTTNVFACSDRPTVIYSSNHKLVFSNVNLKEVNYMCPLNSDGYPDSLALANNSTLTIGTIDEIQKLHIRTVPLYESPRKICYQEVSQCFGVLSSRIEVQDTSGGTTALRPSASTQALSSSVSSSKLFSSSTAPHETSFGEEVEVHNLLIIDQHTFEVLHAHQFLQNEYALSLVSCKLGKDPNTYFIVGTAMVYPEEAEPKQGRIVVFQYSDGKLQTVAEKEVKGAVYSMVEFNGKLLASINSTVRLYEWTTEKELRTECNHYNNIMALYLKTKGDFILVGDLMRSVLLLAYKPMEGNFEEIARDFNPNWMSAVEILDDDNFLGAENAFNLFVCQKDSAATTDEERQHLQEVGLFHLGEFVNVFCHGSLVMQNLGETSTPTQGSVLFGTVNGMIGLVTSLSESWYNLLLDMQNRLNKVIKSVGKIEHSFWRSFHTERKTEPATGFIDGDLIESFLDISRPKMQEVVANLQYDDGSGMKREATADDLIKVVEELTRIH

N#Cc1cc(F)ccc1C1CN([C@@H]2CCC[C@@H]2Oc2ccc3c(c2)CN(C24CC(C2)C(=O)NC4=O)C3=O)C1 (racemic) [Compound 70, Rac-2-(1-((cis)-2-((2-(2,4-dioxo-3-azabicyclo[3.1.1]heptan-1-yl)-1-oxoisoindolin-5-yl)oxy)cyclopentyl)azetidin-3-yl)-5-fluorobenzonitrile] and O=C1NC(=O)C2(N3Cc4cc(O[C@H]5CCCC[C@@H]5N5CC(c6ccc(F)cc6Cl)C5)ccc4C3=O)CC1C2 [Compound 85, 1-(5-(((1S,2S)-2-(3-(2-chloro-4-fluorophenyl)azetidin-1-yl)cyclohexyl)oxy)-1-oxoisoindolin-2-yl)-3-azabicyclo[3.1.1]heptane-2,4-dione] cannot be ordered by EC50: over 10 µM for the first, over 10 µM for the second.

N#Cc1cccc(C2CN([C@H]3CCCC[C@H]3Oc3ccc4c(c3)CN(C35CC(C3)C(=O)NC5=O)C4=O)C2)c1 (racemic) [Compound 77, Rac-3-(1-((cis)-2-((2-(2,4-dioxo-3-azabicyclo[3.1.1]heptan-1-yl)-1-oxoisoindolin-5-yl)oxy)cyclohexyl)azetidin-3-yl)benzonitrile] and N#Cc1cccc(C2CN([C@H]3CCCC[C@@H]3Oc3ccc4c(c3)CN(C35CC(C3)C(=O)NC5=O)C4=O)C2)c1 (racemic) [Compound 78, Rac-3-(1-((trans)-2-((2-(2,4-dioxo-3-azabicyclo[3.1.1]heptan-1-yl)-1-oxoisoindolin-5-yl)oxy)cyclohexyl)azetidin-3-yl)benzonitrile] cannot be ordered by EC50: over 10 µM for the first, over 10 µM for the second.

N#Cc1ccc(C2CN([C@H]3CCCC[C@H]3Oc3ccc4c(c3)CN(C35CC(C3)C(=O)NC5=O)C4=O)C2)c(F)c1 (racemic) [Compound 90, Rac-4-(1-((cis)-2-((2-(2,4-dioxo-3-azabicyclo[3.1.1]heptan-1-yl)-1-oxoisoindolin-5-yl)oxy)cyclohexyl)azetidin-3-yl)-3-fluorobenzonitrile] and N#Cc1ccc(C2CN([C@H]3CCCC[C@@H]3Oc3ccc4c(c3)CN(C35CC(C3)C(=O)NC5=O)C4=O)C2)c(F)c1 (racemic) [Compound 91, Rac-4-(1-((trans)-2-((2-(2,4-dioxo-3-azabicyclo[3.1.1]heptan-1-yl)-1-oxoisoindolin-5-yl)oxy)cyclohexyl)azetidin-3-yl)-3-fluorobenzonitrile] cannot be ordered by EC50: over 10 µM for the first, over 10 µM for the second.

N#Cc1ccc(C2CN([C@H]3CCCC[C@H]3Oc3ccc4c(c3)CN(C35CC(C3)C(=O)NC5=O)C4=O)C2)cc1 (racemic) [Compound 92, Rac-4-(1-((cis)-2-((2-(2,4-dioxo-3-azabicyclo[3.1.1]heptan-1-yl)-1-oxoisoindolin-5-yl)oxy)cyclohexyl)azetidin-3-yl)benzonitrile] and N#Cc1ccc(C2CN([C@H]3CCCC[C@@H]3Oc3ccc4c(c3)CN(C35CC(C3)C(=O)NC5=O)C4=O)C2)cc1 (racemic) [Compound 93, Rac-4-(1-((trans)-2-((2-(2,4-dioxo-3-azabicyclo[3.1.1]heptan-1-yl)-1-oxoisoindolin-5-yl)oxy)cyclohexyl)azetidin-3-yl)benzonitrile] cannot be ordered by EC50: over 10 µM for the first, over 10 µM for the second.

N#Cc1ccccc1C1CN([C@H]2CCCC[C@H]2Oc2ccc3c(c2)CN(C24CC(C2)C(=O)NC4=O)C3=O)C1 (racemic) [Compound 94, Rac-2-(1-((cis)-2-((2-(2,4-dioxo-3-azabicyclo[3.1.1]heptan-1-yl)-1-oxoisoindolin-5-yl)oxy)cyclohexyl)azetidin-3-yl)benzonitrile] and N#Cc1ccccc1C1CN([C@H]2CCCC[C@@H]2Oc2ccc3c(c2)CN(C24CC(C2)C(=O)NC4=O)C3=O)C1 (racemic) [Compound 95, Rac-2-(1-((trans)-2-((2-(2,4-dioxo-3-azabicyclo[3.1.1]heptan-1-yl)-1-oxoisoindolin-5-yl)oxy)cyclohexyl)azetidin-3-yl)benzonitrile] cannot be ordered by EC50: over 10 µM for the first, over 10 µM for the second.

First: N#Cc1cc(F)ccc1C1CN([C@H]2CCCC[C@H]2Oc2ccc3c(c2)CN(C2CCC(=O)NC2=O)C3=O)C1 (mixture of isomers) [Compound 102, Rac-2-(1-((cis)-2-((2-(2,6-dioxopiperidin-3-yl)-1-oxoisoindolin-5-yl)oxy)cyclohexyl)azetidin-3-yl)-5-fluorobenzonitrile]
Second: O=C1NC(=O)C2(N3Cc4cc(O[C@H]5CCC[C@@H]5N5CC(c6ccccc6Cl)C5)ccc4C3=O)CC1C2 [Compound 82, 1-(5-(((1S,2S)-2-(3-(2-chlorophenyl)azetidin-1-yl)cyclopentyl)oxy)-1-oxoisoindolin-2-yl)-3-azabicyclo[3.1.1]heptane-2,4-dione]
The EC50 of the first is 38-fold lower: 0.024 µM for the first, 0.921 µM for the second.

O=C1NC(=O)C2(N3Cc4cc(O[C@H]5CCC[C@@H]5N5CC(c6ccccc6)C5)ccc4C3=O)CC1C2 [Compound 105, 1-(1-oxo-5-(((1S,2S)-2-(3-phenylazetidin-1-yl)cyclopentyl)oxy)isoindolin-2-yl)-3-azabicyclo[3.1.1]heptane-2,4-dione] and O=C1NC(=O)C2(N3Cc4cc(O[C@H]5CCCC[C@@H]5N5CCC(c6ccccc6)C5)ccc4C3=O)CC1C2 (stereo partly drawn) [Compound 106, 1-(1-oxo-5-(((1S,2S)-2-(3-phenylpyrrolidin-1-yl)cyclohexyl)oxy)isoindolin-2-yl)-3-azabicyclo[3.1.1]heptane-2,4-dione] cannot be ordered by EC50: over 10 µM for the first, over 10 µM for the second.

What follows are compounds tested on IKZF2 (Helios) (assay: IKZF2 reporter degradation assay (HEK 293T IKZF2-mNeonGreen reporter cell line)). Settings: 1 μM compound, 24 hour incubation, HEK 293T IKZF2-mNeonGreen reporter.
Assay type: cell-based, human
From the text: Polycistronic plasmids were constructed for the mammalian expression of fluorescent reporter fusions of human transcription factors IKZF1 (Ikaros), IKZF2 (Helios), and IKZF3 (Aiolos). The respective protein sequences had their C-terminal end joined to a GGGGS linker repeated three times followed by mNeonGreen, P2A sequence, and mScarlet. The DNA sequences of the open reading frames are as follows:
IKZF1, IKZF2, and IKZF3 constructs were cloned into the UCOE Hygromycin expression vectors (Millipore Sigma). Reporter constructs were transfected using cationic lipid reagents into adherent HEK 293T cells and stable integrants were selected by treatment with 200 μg/mL hygromycin B. Clonal populations were obtained from the population of stable integrants either by limiting dilution or fluorescence activated cell sorting.
The clonal stable cell lines were maintained under constant 200 μg/mL hygromycin B selection while being passaged for use in the degradation assays. […] The fluorescence intensity of the IKZF1/2/3-mNeonGreen (FITC channel) and mScarlet (PE channel) reporters were routinely analyzed by flow cytometry to confirm consistent expression levels between experiments.
The IKZF1/IKZF2/IKZF3 degradation assays were carried out by harvesting the HEK 293T reporter cell lines and resuspending the cells in media formulated for reduced background fluorescence (FluoroBrite; Thermo Fisher). The respective cell lines were seeded at a density of 4000 cells/well into black-walled 384-well optical grade assay tissue culture plates. The cells were incubated overnight at 37° C. to allow for attachment to the assay plate. Dilutions of the compounds were prepared in DMSO from 10 mM compound stocks. The assay plates were treated with appropriate concentrations of the compounds by dispensing the DMSO dilutions in quadruplicate wells with an upper limit of 0.5% final DMSO.
After 24 hour incubation with the compounds, the assay plates were imaged on an ImageXpress Pico microscopy system (cells maintained at 37° C. during imaging) to obtain the fluorescent readouts. The assay plates were imaged in the FITC and Tetramethylrhodamine (TRITC) channels to obtain the mNeonGreen fluorescence intensity (reporter degradation data) and mScarlet fluorescence intensity (for cell segmentation). 293T-IKZF1 and 293T-IKZF3 reporter cell lines were imaged with exposures of 500 milliseconds (ms) for both FITC and TRITC channels, while the 293T-IKZF2 reporter cell line was imaged with exposures of 1000 ms for FITC and 1250 ms for TRITC. The resulting data was analyzed with Cell Reporter Xpress software using the 2-channel cell scoring analysis with a “percent positive” readout. The TRITC channel was selected for the “nuclei” segmentation with a threshold of 20 while the FITC channel was selected for the “Marker 1” segmentation and a threshold of 100 for the IKZF1 and IKZF3 reporter lines. […] The minimum segmentation width was set to 6 micrometers and the maximum segmentation width was set to 15 micrometers for all cell lines. The DCs calculations were determined by regression to best fit four-parameter logistic curves using GraphPad Prism.

First: O=C1CCC(N2Cc3cc(O[C@H]4CCC[C@@H]4N4CC(c5cccc(F)c5)C4)ccc3C2=O)C(=O)N1 (stereo partly drawn) [Compound 88, 3-(5-(((1S,2S)-2-(3-(3-fluorophenyl)azetidin-1-yl)cyclopentyl)oxy)-1-oxoisoindolin-2-yl)piperidine-2,6-dione]
Second: O=C1CCC(N2Cc3cc(O[C@H]4CCC[C@@H]4N4CC(c5ccc(F)cc5Cl)C4)ccc3C2=O)C(=O)N1 (stereo partly drawn) [Compound 104, 3-(5-(((1S,2S)-2-(3-(2-chloro-4-fluorophenyl)azetidin-1-yl)cyclopentyl)oxy)-1-oxoisoindolin-2-yl)piperidine-2,6-dione]
The “IKZF2 % Degradation @ 1 μM” value of the first is higher: 71.4% for the first, 71.2% for the second.

O=C1CCC(N2Cc3cc(O[C@H]4CCCC[C@@H]4N4CC(c5ccc(F)cc5Cl)C4)ccc3C2=O)C(=O)N1 (stereo partly drawn) [Compound 103, 3-(5-(((1S,2S)-2-(3-(2-chloro-4-fluorophenyl)azetidin-1-yl)cyclohexyl)oxy)-1-oxoisoindolin-2-yl)piperidine-2,6-dione] was tested, and the “IKZF2 % Degradation @ 1 μM” value was 73.4%.
